The text below walks through data of patent publication US12186402B2, “Polymer materials for delivery of short-chain fatty acids to the intestine for applications in human health and treatment of disease” (The University of Chicago, priority 2017, dated 2025).

The test system of this assay is allergy to peanuts induced in mice. Kind of assay: Induced peanut allergy model: challenge with peanut protein; core body temperature, peanut-specific IgE, IgG1, mMCP-1. It counts as in vivo, mouse.

In the case of `CCCC(=O)[O-].[Na+]` [sodium butyrate], for the setting “Example 8: allergic mice, 2.83 mg per g body weight daily by oral gavage, FIG. 17”, the “physiological markers and symptoms of an allergic reaction” value is listed as “not effective”. Moreover, for the setting “FIG. 19, allergic mice, daily oral treatment”, the “core body temperature over time after challenge with peanut protein (protection)” value was “no protection”.
